These results are taken from US8334287B2 (Hoffmann-La Roche Inc., priority 2009, dated 2012).

T1 sequence (P41594 21-1180 isoform P41594-2 limits assumed): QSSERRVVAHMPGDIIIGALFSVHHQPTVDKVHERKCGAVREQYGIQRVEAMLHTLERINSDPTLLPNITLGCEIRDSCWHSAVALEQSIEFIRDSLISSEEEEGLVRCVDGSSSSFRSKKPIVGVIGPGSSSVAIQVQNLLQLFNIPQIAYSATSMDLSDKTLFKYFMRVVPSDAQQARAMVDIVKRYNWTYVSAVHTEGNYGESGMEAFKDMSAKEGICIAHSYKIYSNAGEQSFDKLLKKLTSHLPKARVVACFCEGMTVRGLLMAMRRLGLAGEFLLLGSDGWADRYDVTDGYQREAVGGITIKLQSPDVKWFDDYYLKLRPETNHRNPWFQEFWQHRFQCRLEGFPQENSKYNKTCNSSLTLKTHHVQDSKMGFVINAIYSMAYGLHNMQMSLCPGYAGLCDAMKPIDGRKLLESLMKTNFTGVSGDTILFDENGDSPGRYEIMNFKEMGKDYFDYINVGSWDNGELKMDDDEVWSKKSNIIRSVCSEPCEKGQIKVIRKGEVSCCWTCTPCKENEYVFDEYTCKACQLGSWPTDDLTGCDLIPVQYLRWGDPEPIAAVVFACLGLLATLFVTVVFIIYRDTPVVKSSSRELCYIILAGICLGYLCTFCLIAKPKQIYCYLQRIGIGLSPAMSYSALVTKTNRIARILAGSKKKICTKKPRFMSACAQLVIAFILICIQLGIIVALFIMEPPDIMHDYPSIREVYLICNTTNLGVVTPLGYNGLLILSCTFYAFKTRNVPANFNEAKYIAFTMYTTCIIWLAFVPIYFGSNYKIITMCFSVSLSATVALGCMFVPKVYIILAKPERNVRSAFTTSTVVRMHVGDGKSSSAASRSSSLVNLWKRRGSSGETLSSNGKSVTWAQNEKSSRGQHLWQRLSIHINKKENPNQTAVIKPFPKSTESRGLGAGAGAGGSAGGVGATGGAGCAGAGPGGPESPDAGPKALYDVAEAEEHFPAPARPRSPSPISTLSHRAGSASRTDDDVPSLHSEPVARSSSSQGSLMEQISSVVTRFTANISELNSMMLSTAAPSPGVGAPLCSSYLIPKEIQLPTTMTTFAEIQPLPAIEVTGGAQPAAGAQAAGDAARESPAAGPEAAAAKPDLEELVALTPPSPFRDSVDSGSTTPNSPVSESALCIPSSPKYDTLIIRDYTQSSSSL

This assay concerns the target T1, human mGlu5a receptor (Homo sapiens, UniProt P41594).
T1 construct: expressed in transfected cells; host or cells: EBNA cells (transient transfection); membranes prepared from them
The assay is described as follows: mGlu5a receptor binding, displacement of [3H]MPEP. The note with it: competing radioligand [3H]MPEP; human mGlu5a receptor transiently transfected into EBNA cells; Ki=IC50/1+L/Kd. As to the method: For binding experiments, cDNA encoding human mGlu5a receptor was transiently transfected into EBNA cells using a procedure described by E.-J. Schlaeger and K. Christensen (Cytotechnology 1998, 15, 1-13). For functional assays, [Ca^2+]i measurements were performed largely as described previously (Porter et al., Br J. Pharmacol 1999, 128, 13-20) on stably expressed recombinant human mGlu 5a receptors in HEK-293 cells. The cells were dye loaded using Fluo 4-AM (purchased from Molecular Probes, 2 μM final concentration) [Ca^2+]i measurements were performed using a fluorometric imaging plate reader (FLIPR, Molecular Devices Corporation, La Jolla, Calif., USA). Antagonist evaluation was performed following a 5 minute preincubation with the test compounds followed by the addition of a submaximal addition of agonist.
The inhibition (antagonists) curves were fitted with a four parameter logistic equation giving IC50, and Hill coefficient using the iterative non linear curve fitting software Xcel fit.
The Ki values of the compounds tested are given. The Ki value is defined by the following formula: Ki=IC50/1+L/Kd in which the IC50 values are those concentrations of the compounds tested in which causes 50% inhibition of the competing radioligand ([^3H]MPEP). [L] is the concentration of radioligand used in the binding experiment and the Kd value of the radioligand is empiracally determined for each batch of membranes prepared.
The compound `Cc1nc(C#Cc2cccc(Cl)c2)cn1-c1cc[nH]c(=O)c1` [Example 1, 4-[4-(3-chloro-phenylethynyl)-2-methyl-imidazol-1-yl]-1H-pyridin-2-one] registered a Ki of 40 nM.
In turn, `Cc1nc(C#Cc2cccc(Cl)c2)cn1-c1ccn(C)c(=O)c1` [Example 2, 4-[4-(3-chloro-phenylethynyl)-2-methyl-imidazol-1-yl]-1-methyl-1H-pyridin-2-one] had an inhibition constant (Ki) of 69 nM.
To `CCn1ccc(-n2cc(C#Cc3cccc(Cl)c3)nc2C)cc1=O` [Example 3, 4-[4-(3-chloro-phenylethynyl)-2-methyl-imidazol-1-yl]-1-ethyl-1H-pyridin-2-one] belongs 39 nM; to `Cc1nc(C#Cc2cccc(Cl)c2)cn1-c1ccn(CCO)c(=O)c1` [Example 4, 4-[4-(3-chloro-phenylethynyl)-2-methyl-imidazol-1-yl]-1-(2-hydroxy-ethyl)-1H-pyridin-2-one], 345 nM.
In turn, `COCCn1ccc(-n2cc(C#Cc3cccc(Cl)c3)nc2C)cc1=O` [Example 5, 4-[4-(3-chloro-phenylethynyl)-2-methyl-imidazol-1-yl]-1-(2-methoxy-ethyl)-1H-pyridin-2-one] gave a Ki of 44 nM.
The figure for `Cc1nc(C#Cc2ccnc(Cl)c2)cn1-c1cc[nH]c(=O)c1` [Example 6, 4-[4-(2-chloro-pyridin-4-ylethynyl)-2-methyl-imidazol-1-yl]-1H-pyridin-2-one] is 146 nM; for `Cc1nc(C#Cc2ccnc(Cl)c2)cn1-c1ccn(C)c(=O)c1` [Example 7, 4-[4-(2-chloro-pyridin-4-ylethynyl)-2-methyl-imidazol-1-yl]-1-methyl-1H-pyridin-2-one] it is 180 nM.
`Cc1cccc(C#Cc2cn(-c3cc[nH]c(=O)c3)c(C)n2)c1` [Example 8, 4-(2-Methyl-4-m-tolylethynyl-imidazol-1-yl)-1H-pyridin-2-one] came in with an inhibitory constant (Ki) of 113 nM.
To `Cc1cccc(C#Cc2cn(-c3ccn(C)c(=O)c3)c(C)n2)c1` [Example 9, 1-Methyl-4-(2-methyl-4-m-tolylethynyl-imidazol-1-yl)-1H-pyridin-2-one] belongs 42 nM; to `CCn1ccc(-n2cc(C#Cc3cccc(C)c3)nc2C)cc1=O` [Example 10, 1-Ethyl-4-(2-methyl-4-m-tolylethynyl-imidazol-1-yl)-1H-pyridin-2-one], 75 nM.
`Cc1cccc(C#Cc2cn(-c3ccn(CCO)c(=O)c3)c(C)n2)c1` [Example 11, 1-(2-Hydroxy-ethyl)-4-(2-methyl-4-m-tolylethynyl-imidazol-1-yl)-1H-pyridin-2-one] showed an inhibitory constant (Ki) of 265 nM.
The figure for `COCCn1ccc(-n2cc(C#Cc3cccc(C)c3)nc2C)cc1=O` [Example 12, 1-(2-Methoxy-ethyl)-4-(2-methyl-4-m-tolylethynyl-imidazol-1-yl)-1H-pyridin-2-one] is 40 nM; for `CCOC(=O)Cn1ccc(-n2cc(C#Cc3cccc(C)c3)nc2C)cc1=O` [Example 13, [4-(2-Methyl-4-m-tolylethynyl-imidazol-1-yl)-2-oxo-2H-pyridin-1-yl]-acetic acid ethyl ester] it is 94 nM.
The figure for `Cc1nc(C#Cc2cccc(Cl)c2)cn1-c1cccc(O)n1` [Example 14, 6-[4-(3-chloro-phenylethynyl)-2-methyl-imidazol-1-yl]-pyridin-2-ol] is 42 nM.
As to `Cc1nc(C#Cc2cccc(Cl)c2)cn1-c1cccc(=O)n1C` [Example 15, 6-[4-(3-chloro-phenylethynyl)-2-methyl-imidazol-1-yl]-1-methyl-1H-pyridin-2-one], the inhibition constant Ki worked out at 154 nM.
Take `Cc1nc(C#Cc2cccc(Cl)c2)cn1-c1cncc(=O)[nH]1` [Example 16, 6-[4-(3-chloro-phenylethynyl)-2-methyl-imidazol-1-yl]-1H-pyrazin-2-one]: the inhibitory constant (Ki) stood at 659 nM.
The figure for `Cc1nc(C#Cc2ccnc(Cl)c2)cn1-c1cccc(O)n1` [Example 17, 6-[4-(2-chloro-pyridin-4-ylethynyl)-2-methyl-imidazol-1-yl]-pyridin-2-ol] is 144 nM; for `Cc1nc(C#Cc2ccnc(Cl)c2)cn1-c1cccc(=O)n1C` [Example 18, 6-[4-(2-chloro-pyridin-4-ylethynyl)-2-methyl-imidazol-1-yl]-1-methyl-1H-pyridin-2-one] it is 559 nM.
The figure for `Cc1nc(C#Cc2ccnc(Cl)c2)cn1-c1cncc(=O)[nH]1` [Example 19, 6-[4-(2-chloro-pyridin-4-ylethynyl)-2-methyl-imidazol-1-yl]-1H-pyrazin-2-one] is 504 nM; for `Cc1nc(C#Cc2ccnc(Cl)c2)cn1-c1cncc(=O)n1C` [Example 20, 6-[4-(2-chloro-pyridin-4-ylethynyl)-2-methyl-imidazol-1-yl]-1-methyl-1H-pyrazin-2-one] it is 817 nM.
`Cc1nc(C#Cc2cccc(Cl)c2)cn1-c1cnn(C)c(=O)c1` [Example 21, 5-[4-(3-chloro-phenylethynyl)-2-methyl-imidazol-1-yl]-2-methyl-2H-pyridazin-3-one] came in with an inhibition constant Ki of 40 nM.
On to `Cc1nc(C#Cc2ccnc(Cl)c2)cn1-c1cnn(C)c(=O)c1` [Example 22, 5-[4-(2-chloro-pyridin-4-ylethynyl)-2-methyl-imidazol-1-yl]-2-methyl-2H-pyridazin-3-one], for which the affinity corresponds to a Ki of 384 nM.
For the compound `Cc1cccc(C#Cc2cn(-c3cnn(C)c(=O)c3)c(C)n2)c1` [Example 23, 2-Methyl-5-(2-methyl-4-m-tolylethynyl-imidazol-1-yl)-2H-pyridazin-3-one], the Ki is 52 nM.
To `Cc1nc(C#Cc2ccnc(Cl)c2)cn1-c1cc(=O)n(C)cn1` [Example 24, 6-[4-(2-chloro-pyridin-4-ylethynyl)-2-methyl-imidazol-1-yl]-3-methyl-3H-pyrimidin-4-one] belongs 277 nM; to `Cc1nc(C#Cc2cccc(Cl)c2)c(C)n1-c1cc[nH]c(=O)c1` [Example 25, 4-[4-(3-chloro-phenylethynyl)-2,5-dimethyl-imidazol-1-yl]-1H-pyridin-2-one], 148 nM.
The compound `Cc1nc(C#Cc2cccc(Cl)c2)c(C)n1-c1ccn(C)c(=O)c1` [Example 26, 4-[4-(3-chloro-phenylethynyl)-2,5-dimethyl-imidazol-1-yl]-1-methyl-1H-pyridin-2-one] yielded an inhibition constant Ki of 33 nM.
Compound `CCn1ccc(-n2c(C)nc(C#Cc3cccc(Cl)c3)c2C)cc1=O` [Example 27, 4-[4-(3-chloro-phenylethynyl)-2,5-dimethyl-imidazol-1-yl]-1-ethyl-1H-pyridin-2-one] displayed an inhibition constant Ki of 40 nM.
The compound `Cc1nc(C#Cc2cccc(Cl)c2)c(C)n1-c1ccn(CCO)c(=O)c1` [Example 28, 4-[4-(3-chloro-phenylethynyl)-2,5-dimethyl-imidazol-1-yl]-1-(2-hydroxy-ethyl)-1H-pyridin-2-one] registered a Ki of 222 nM.
The figure for `COCCn1ccc(-n2c(C)nc(C#Cc3cccc(Cl)c3)c2C)cc1=O` [Example 29, 4-[4-(3-chloro-phenylethynyl)-2,5-dimethyl-imidazol-1-yl]-1-(2-methoxy-ethyl)-1H-pyridin-2-one] is 58 nM; for `Cc1cccc(C#Cc2nc(C)n(-c3cc[nH]c(=O)c3)c2C)c1` [Example 30, 4-(2,5-dimethyl-4-m-tolylethynyl-imidazol-1-yl)-1H-pyridin-2-one] it is 211 nM; for `Cc1cccc(C#Cc2nc(C)n(-c3ccn(C)c(=O)c3)c2C)c1` [Example 31, 4-[2,5-dimethyl-4-m-tolylethynyl-imidazol-1-yl]-1-methyl-1H-pyridin-2-one] it is 61 nM.
To `CCn1ccc(-n2c(C)nc(C#Cc3cccc(C)c3)c2C)cc1=O` [Example 32, 4-[2,5-dimethyl-4-m-tolylethynyl-imidazol-1-yl]-1-ethyl-1H-pyridin-2-one] belongs 46 nM.
The figure for `Cc1cccc(C#Cc2nc(C)n(-c3ccn(CCO)c(=O)c3)c2C)c1` [Example 33, 4-[2,5-dimethyl-4-m-tolylethynyl-imidazol-1-yl]-1-(2-hydroxy-ethyl)-1H-pyridin-2-one] is 446 nM; for `COCCn1ccc(-n2c(C)nc(C#Cc3cccc(C)c3)c2C)cc1=O` [Example 34, 4-[2,5-dimethyl-4-m-tolylethynyl-imidazol-1-yl]-1-(2-methoxy-ethyl)-1H-pyridin-2-one] it is 87 nM; for `Cc1nc(C#Cc2ccnc(Cl)c2)c(C)n1-c1cc[nH]c(=O)c1` [Example 35, 4-[4-(2-chloro-pyridin-4-ylethynyl)-2,5-dimethyl-imidazol-1-yl]-1H-pyridin-2-one] it is 347 nM.
As for `Cc1nc(C#Cc2ccnc(Cl)c2)c(C)n1-c1ccn(C)c(=O)c1` [Example 36, 4-[4-(2-chloro-pyridin-4-ylethynyl)-2,5-dimethyl-imidazol-1-yl]-1-methyl-1H-pyridin-2-one], the Ki was found to be 173 nM.
The figure for `CCn1ccc(-n2c(C)nc(C#Cc3ccnc(Cl)c3)c2C)cc1=O` [Example 37, 4-[4-(2-chloro-pyridin-4-ylethynyl)-2,5-dimethyl-imidazol-1-yl]-1-ethyl-1H-pyridin-2-one] is 238 nM; for `COCCn1ccc(-n2c(C)nc(C#Cc3ccnc(Cl)c3)c2C)cc1=O` [Example 39, 4-[4-(2-chloro-pyridin-4-ylethynyl)-2,5-dimethyl-imidazol-1-yl]-1-(2-methoxy-ethyl)-1H-pyridin-2-one] it is 285 nM.
